These results are taken from patent US4367339A, “Substituted N-nitroaniline compounds and inorganic and organic salts thereof useful for enhancing auxiliary branching, canopy flowering and crop yield of plant and as lodging inhibitors therefor” (priority 1980, dated 1983).

Data set [1] deals with soybean (Glycine max) Adelphia. The experiment in a line: Dwarfing and stem stiffening of soybeans (plant height, greenhouse, foliar spray). The class given is in vivo. The settings on record: three weeks after spraying. The method, then:
In the following tests, test compounds are dissolved or dispersed in acetone-water (1:1) mixtures at the final concentration corresponding to the kg/ha rates indicated in the table below. The solution also contains 0.25% v/v colloidal BIOFILM® (a product of Colloidal Products Corp.) which is a mixture of alkyl aryl polyethoxyethanol, free and combined fatty acids, glycol ethers, dialkylbenzene carboxylate and 2-propanol.
The plant species used in these tests are barley (Hordeum vulgare), (Mexico) and soybean (Glycine max)Adelphia.
The solution or dispersion of the compound under test is sprayed at a rate of 747 l/ha with a moving nozzle along an overhead stationary track. The spray nozzle moves at a constant speed over the plants.
The plants are grown in plastic pots, and are well established at the time of treatment. The seedlings of barley are 10 to 20 cm in height, while the seedlings of soybeans are at the second to third trifoliate stage. Plants are watered prior to treatment and then sprayed to provide the kg/ha rate of test compound desired. After spraying the plants are placed on greenhouse benches and watered and fertilized in accordance with normal greenhouse procedures.
Three weeks after spraying the plants are measured and harvested. Harvesting is done at the boot stage. All treatments are replicated six times and comparisons are made against untreated controls. Data obtained are reported in Table VI below as percent reduction in plant height over untreated controls.

The test system of data set [2] is soybeans (Glycine max) Adelphia variety. Nature of the data set: Increasing axillary branching and improving the canopy of broad leaf plants (soybeans). The settings on record: three weeks after treatment. The class given is in vivo, soybean (Glycine max). The source says: In these tests seedling soybean plants approximately three weeks old, and grown in plastic pots to the 2nd to 3rd trifoliate stage, are sprayed with solutions or dispersions of test compound prepared as described in Example 7 above. The same spraying apparatus, described in Example 7 above, is used and after spraying the plants are placed on greenhouse benches and watered and fertilized. Three weeks after treatment the plants are examined to determine what effect the application of test compound has had on the axillary branching and canopy development of the treated plants.
Increased axillary branching and improved canopy are biological responses which are highly advantageous in the growing of ornamental plants. These responses also have advantage in many crops since increased branching may result in the greater production of fruit, while improved canopy tends to shade and suppress the growth of undesirable weeds that compete with the crops for sunlight, water and plant nutrients. Data obtained are reported in table VII below where axillary branching and canopy are reported as percent increase over untreated controls.

Data set [3] deals with barley (Hordeum vulgare, var. Georgie). The experiment in a line: Antilodging effects on barley. Format: in vivo. Set-up: key to Tiller formation / Stem stiffness: 5 = no increase over controls, 3 = moderate significant increase. The settings on record: for Stem stiffness / Tiller formation: control 5; for Weight Fresh: control 49.1; for Height: control 53.1; for Phytotoxicity: three weeks after spraying; for Weight Dry: control 5.2. The method, then: In this experiment the procedure of Example 7 is repeated excepting that the crop used was barley (Hordeum vulgare, var. Georgie; European lodging prone variety). The plants are treated at the 3-4 leaf stage. Plants are watered prior to treatment and then sprayed to provide the kg/ha rate of test compound desired. After spraying the plants are placed on greenhouse benches and watered and fertilized in accordance with normal greenhouse procedures.
Three weeks after spraying the plants are measured and harvested. All treatments are replicated six times and companions are made against untreated controls.
The following rating system is used:
5=No increase over controls
3=Moderate, significant increase over controls.

Where a name gives a salt, the structure may show the parent alone.

As for “1,2-Dimethyl-3,5-diphenylpyrazolium salt with 2,6-dibromo-α,α,α-trifluoro-N--aci-nitro-o-toluidine”, the “% Reduction in Plant Height over untreated controls” value (“% Reduction in Plant Height” below) is reported as greater than 10% in data set [1] (rate 0.125 kg/ha), greater than 15% in data set [1] (rate 0.25 kg/ha) and greater than 20% in data set [1] (rate 0.5 kg/ha).
For “3-(p-Fluorophenyl)-1,2-dimethyl-3,5-diphenylpyrazolium salt with 2,4,6-tribromo-N--aci-nitroaniline”, in data set [2] (rate 0.125 kg/ha), the “% Increase in Plant Canopy over untreated controls” value (from here on “% Increase in Plant Canopy”) is “normal” and the “% Increase in axillary branching over untreated controls” value (from here on “% Increase in axillary branching”) is recorded as “normal”. Also, in data set [2] (rate 0.5 kg/ha), the “% Increase in axillary branching” value is “normal”.
For `Cn1c(-c2ccccc2)cc(-c2ccccc2)[n+]1C.O=[N+]([O-])[N-]c1c(Cl)cc(Cl)cc1Cl` [1,2-Dimethyl-3,5-diphenylpyrazolium salt with 2,4,6-trichloro-N--aci-nitroaniline], the “% Reduction in Plant Height” value in data set [1] (rate 0.125 kg/ha) was greater than 10%; in data set [1] (rate 0.25 kg/ha), greater than 15%; in data set [1] (rate 0.5 kg/ha) it was greater than 25%.
For `O=[N+]([O-])Nc1c(Br)cc(Br)cc1Br` [1-Hexadecylpyridinium salt with 2,4,6-tribromo-N-- aci-nitro] [1-Hexadecylpyridinium salt with 2,4,6-tribromo-N-- aci-nitroaniline] the same measures were greater than 35%, greater than 35% and greater than 50%.
On to `O=[N+]([O-])Nc1c(Br)cc(Br)cc1Br` [1-Hexadecylpyridinium salt with 2,4,6-tribromo-N--aci-nitroa], for which the “% Increase in Plant Canopy” value in data set [2] (rate 0.125 kg/ha) was “normal”. The “% Increase in axillary branching” value in data set [2] (rate 0.125 kg/ha), in data set [2] (rate 0.25 kg/ha) and in data set [2] (rate 0.5 kg/ha) was “normal” in each case.
As to `O=[N+]([O-])Nc1c(Br)cc(Br)cc1Br` [2,4,6-Tribromo-N--nitroaniline, Calcium salt], the “% Increase in Plant Canopy” value in data set [2] (rate 0.25 kg/ha, listed as 2,4,6-Tribromo-N--aci-nitroaniline calcium salt (2:1), Calcium salt) was “slight reduction”; in data set [2] (rate 0.5 kg/ha, listed as 2,4,6-Tribromo-N--aci-nitroaniline calcium salt (2:1), Calcium salt) it was “moderate reduction”.
Regarding `O=[N+]([O-])Nc1c(Br)cc(Br)cc1Br` [2,4,6-Tribromo-N--nitroaniline, diisopropylamine (1:1)salt], the “% Increase in Plant Canopy” value in data set [2] (rate 0.5 kg/ha) was “slight reduction”.
`O=[N+]([O-])Nc1c(Br)cc(Br)cc1Br` [Dibenzylamine(1:1)with 2,4,6-tribromo-N--nitroaniline]: the “% Reduction in Plant Height” value was greater than 25% in data set [1] (rate 0.125 kg/ha), greater than 35% in data set [1] (rate 0.25 kg/ha) and greater than 50% in data set [1] (rate 0.5 kg/ha).
Taken in the same sequence, the figures for `O=[N+]([O-])Nc1c(Br)cc(Br)cc1Br` [Dodecylamine with 2,4,6-tribromo-N--nitroaniline] were greater than 15%, greater than 25% and greater than 35%.
Take `O=[N+]([O-])Nc1c(Br)cccc1Br` [Sodium salt of 2,6-dibromo-N--nitroaniline]: in data set [3] (rate 0.25 kg/ha), the Stem stiffness came to 4, the Tiller formation worked out at 4, the “Weight Fresh” value is on record as 55.6 g and the Height was 50.2 cm. Also, the Phytotoxicity in data set [3] (rate 0.25 kg/ha) is on record as 5 (No increase over controls). Moreover, in data set [3] (rate 0.5 kg/ha), the Stem stiffness was determined as 4; the Tiller formation is reported as 3 (Moderate, significant increase over controls.); the “Weight Dry” value was found to be 6.4 g; the “Weight Fresh” value worked out at 57.6 g. In data set [3] (rate 0.5 kg/ha), the Height is on record as 47.2 cm and the Phytotoxicity is given as 5 (No increase over controls). Moreover, in data set [3] (rate 1.0 kg/ha), the Stem stiffness is 3 (Moderate, significant increase over controls.); the Tiller formation is given as 3 (Moderate, significant increase over controls.); the “Weight Fresh” value is recorded as 55.5 g; the Height amounted to 47.0 cm. Moreover, the Phytotoxicity in data set [3] (rate 1.0 kg/ha) is on record as 5 (No increase over controls).
As to `O=[N+]([O-])Nc1cccc(Cl)c1Cl` [Sodium salt with 2,3-dichloro-N--nitroaniline], in data set [3] (rate 0.25 kg/ha), the Stem stiffness is reported as 5 (No increase over controls), the Tiller formation was 5 (No increase over controls), the “Weight Dry” value is 8.2 g and the “Weight Fresh” value amounted to 60.9 g. Also, in data set [3] (rate 0.25 kg/ha), the Height came out at 53.3 cm and the Phytotoxicity is listed as 5 (No increase over controls). For the same compound, in data set [3] (rate 0.5 kg/ha), the Stem stiffness is 5 (No increase over controls), the Tiller formation was 5 (No increase over controls), the “Weight Dry” value worked out at 7.1 g and the “Weight Fresh” value worked out at 58.7 g. In addition, in data set [3] (rate 0.5 kg/ha), the Height turned out to be 53.8 cm and the Phytotoxicity was 5 (No increase over controls). In data set [3] (rate 1.0 kg/ha), the Stem stiffness was 5 (No increase over controls), the Tiller formation was 5 (No increase over controls), the “Weight Dry” value is recorded as 6.0 g and the “Weight Fresh” value is on record as 57.5 g. Moreover, in data set [3] (rate 1.0 kg/ha), the Height came to 52.2 cm and the Phytotoxicity was 5 (No increase over controls).
As to `O=[N+]([O-])Nc1c(Br)cccc1Br` [Tallowamine compound with 2,6-dibromo-N--nitroaniline], in data set [3] (rate 0.25 kg/ha), the Stem stiffness was 4, the Tiller formation was 5 (No increase over controls), the “Weight Dry” value is reported as 6.8 g and the “Weight Fresh” value came out at 62.3 g. In data set [3] (rate 0.25 kg/ha), the Height was determined as 54.7 cm and the Phytotoxicity is 5 (No increase over controls). Moreover, in data set [3] (rate 0.5 kg/ha), the Stem stiffness is 4, the Tiller formation was determined as 4, the “Weight Dry” value amounted to 7.5 g and the “Weight Fresh” value is on record as 60.1 g. Besides, in data set [3] (rate 0.5 kg/ha), the Height amounted to 48.5 cm and the Phytotoxicity is 5 (No increase over controls). In data set [3] (rate 1.0 kg/ha), the Stem stiffness is 4, the Tiller formation worked out at 4, the “Weight Fresh” value amounted to 55.9 g and the Height is 48.7 cm. For the same compound, the Phytotoxicity in data set [3] (rate 1.0 kg/ha) is recorded as 5 (No increase over controls).
In the case of `CCc1cccc(C(C)C)c1N[N+](=O)[O-]` [Tallowamine compound with 2-ethyl-6-isopropyl-N--nitroanilin] [Tallowamine compound with 2-ethyl-6-isopropyl-N--nitroaniline], in data set [3] (rate 0.25 kg/ha), the Stem stiffness stood at 4, the Tiller formation was determined as 4, the “Weight Fresh” value was 49.2 g and the Height was 45.0 cm. In data set [3] (rate 0.25 kg/ha), the Phytotoxicity is given as 5 (No increase over controls). Besides, in data set [3] (rate 0.5 kg/ha), the Stem stiffness turned out to be 4, the Tiller formation came out at 4, the “Weight Fresh” value worked out at 47.1 g and the Height is listed as 41.7 cm. The Phytotoxicity in data set [3] (rate 0.5 kg/ha) is recorded as 5 (No increase over controls). In data set [3] (rate 1.0 kg/ha), the Stem stiffness is listed as 4, the Tiller formation is given as 4, the “Weight Fresh” value is given as 52.4 g and the Height was determined as 45.7 cm. In addition, the Phytotoxicity in data set [3] (rate 1.0 kg/ha) is on record as 5 (No increase over controls).
“Tributyl(2,4-dichlorobenzyl)phosphonium salt with aniline”: the “% Reduction in Plant Height” value in data set [1] (rate 0.125 kg/ha) is greater than 8%; in data set [1] (rate 0.25 kg/ha), greater than 25%; in data set [1] (rate 0.5 kg/ha), greater than 50%.
